Experimental data: US20230322761A1, “DEGRADATION OF BRUTON'S TYROSINE KINASE (BTK) BY CONJUGATION OF BTK INHIBITORS WITH E3 LIGASE LIGAND AND METHODS OF USE” (BEIGENE, LTD., priority 2020, published 2023)
“And” between values parts separate entries of the source, which are not always exact repeats. Identical values can stand only once.

Molecular target: T1, BTK (Homo sapiens, UniProt Q06187)
T1 construct: endogenous in cells; host or cells: TMD-8 cells
Assay: BTK degradation in TMD-8 cells, HTRF assay after 6 h treatment
Assay type: cell-based
Conditions: IC50 (DC50) of BTK degradation
Procedure, shortened: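 TMD-8 cells treated for 6 h with 8 compound doses in 6-fold dilution steps from a 1 mM 500× DMSO stock (0.2% DMSO), then lysed 30 min at room temperature. BTK in lysate detected by HTRF (665/620 nm) after overnight antibody incubation; DC50 from four-parameter curve fit.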

T1 sequence (Q06187 whole entry): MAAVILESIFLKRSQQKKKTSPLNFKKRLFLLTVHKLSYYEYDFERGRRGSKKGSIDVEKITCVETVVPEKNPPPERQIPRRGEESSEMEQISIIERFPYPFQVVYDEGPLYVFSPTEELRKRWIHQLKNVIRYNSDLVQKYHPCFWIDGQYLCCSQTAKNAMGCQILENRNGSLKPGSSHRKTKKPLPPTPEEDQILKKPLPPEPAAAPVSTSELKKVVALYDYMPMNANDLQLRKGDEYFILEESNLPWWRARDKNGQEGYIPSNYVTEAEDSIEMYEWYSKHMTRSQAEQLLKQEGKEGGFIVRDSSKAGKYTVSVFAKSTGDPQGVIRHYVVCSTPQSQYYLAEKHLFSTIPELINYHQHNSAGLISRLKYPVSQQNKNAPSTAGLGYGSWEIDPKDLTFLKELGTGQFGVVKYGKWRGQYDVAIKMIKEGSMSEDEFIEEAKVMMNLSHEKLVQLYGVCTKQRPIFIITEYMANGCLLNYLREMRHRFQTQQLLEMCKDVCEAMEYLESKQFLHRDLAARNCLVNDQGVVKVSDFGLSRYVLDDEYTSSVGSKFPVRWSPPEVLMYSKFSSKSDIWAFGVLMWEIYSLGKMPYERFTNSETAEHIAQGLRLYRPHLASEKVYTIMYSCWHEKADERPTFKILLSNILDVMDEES

| SMILES | DC50 |
| --- | --- |
| Cc1cc(-c2n[nH]c3ncc(-c4ccc(N5CCN(CC6CCN(c7ccc(N8CCC(=O)NC8=O)cc7)CC6)CC5)cc4)cc23)ccc1CNC(=O)c1noc(C2(C(F)(F)F)CC2)n1 [Example 42, N-(4-(5-(4-(4-((1-(4-(2,4-dioxotetrahydropyrimidin-1(2H)-yl)phenyl)piperidin-4-yl)methyl)piperazin-1-yl)phenyl)-1H-pyrazolo[3,4-b]pyridin-3-yl)-2-methylbenzyl)-5-(1-(trifluoromethyl)cyclopropyl)-1,2,4-oxadiazole-3-carboxamide] | 22.8 nM |
| Cc1c([C@@H](C)NC(=O)c2noc(C(C)(C)C)n2)ccc(-c2n[nH]c3ncc(-c4ccc(N5CCN(CC6CCN(c7ccc(N8CCC(=O)NC8=O)cc7)CC6)CC5)cc4)cc23)c1F [Example 43, (R)-5-(tert-butyl)-N-(1-(4-(5-(4-(4-((1-(4-(2,4-dioxotetrahydropyrimidin-1(2H)-yl)phenyl)piperidin-4-yl)methyl)piperazin-1-yl)phenyl)-1H-pyrazolo[3,4-b]pyridin-3-yl)-3-fluoro-2-methylphenyl)ethyl)-1,2,4-oxadiazole-3-carboxamide] | 3.44 nM |
| Cc1cc(-c2n[nH]c3ncc(-c4ccc(N5CCN(CC6CCN(c7ccc(N8CCC(=O)NC8=O)cc7)CC6)CC5)cc4)cc23)c(F)cc1[C@@H](C)NC(=O)c1noc(C(C)(C)C)n1 [Example 44, (R)-5-(tert-butyl)-N-(1-(4-(5-(4-(4-((1-(4-(2,4-dioxotetrahydropyrimidin-1(2H)-yl)phenyl)piperidin-4-yl)methyl)piperazin-1-yl)phenyl)-1H-pyrazolo[3,4-b]pyridin-3-yl)-5-fluoro-2-methylphenyl)ethyl)-1,2,4-oxadiazole-3-carboxamide] | 6.02 nM |
| Cc1c([C@@H](C)NC(=O)c2nc(C(C)(C)C)no2)ccc(-c2n[nH]c3ncc(-c4ccc(N5CCN(CC6CCN(c7ccc(N8CCC(=O)NC8=O)cc7)CC6)CC5)cc4)cc23)c1F [Example 45, (R)-3-(tert-butyl)-N-(1-(4-(5-(4-(4-((1-(4-(2,4-dioxotetrahydropyrimidin-1(2H)-yl)phenyl)piperidin-4-yl)methyl)piperazin-1-yl)phenyl)-1H-pyrazolo[3,4-b]pyridin-3-yl)-3-fluoro-2-methylphenyl)ethyl)-1,2,4-oxadiazole-5-carboxamide] | 2.15 nM |
| Cc1cc(-c2n[nH]c3ncc(-c4ccc(N5CCN(CC6CCN(c7ccc(N8CCC(=O)NC8=O)cc7)CC6)CC5)cc4)cc23)c(F)cc1[C@@H](C)NC(=O)c1nc(C(C)(C)C)no1 [Example 46, (R)-3-(tert-butyl)-N-(1-(4-(5-(4-(4-((1-(4-(2,4-dioxotetrahydropyrimidin-1(2H)-yl)phenyl)piperidin-4-yl)methyl)piperazin-1-yl)phenyl)-1H-pyrazolo[3,4-b]pyridin-3-yl)-5-fluoro-2-methylphenyl)ethyl)-1,2,4-oxadiazole-5-carboxamide] | 5.13 nM |
| Cc1cc(-c2n[nH]c3ncc(-c4ccc(N5CCN(CCC6CCN(c7ccc(C8CCC(=O)NC8=O)c(F)c7)CC6)CC5)cc4)cc23)ccc1CNC(=O)c1noc(C(C)(C)C)n1 (stereo not drawn) [Example 48, 5-(tert-butyl)-N-(4-(5-(4-(4-(2-(1-(4-(2,6-dioxopiperidin-3-yl)-3-fluorophenyl)piperidin-4-yl)ethyl)piperazin-1-yl)phenyl)-1H-pyrazolo[3,4-b]pyridin-3-yl)-2-methylbenzyl)-1,2,4-oxadiazole-3-carboxamide] | 4.76 nM |
| COc1cc(N2CCC(CN3CCN(c4ccc(-c5cnc6[nH]nc(-c7ccc(CNC(=O)c8noc(C(C)(C)C)n8)c(C)c7)c6c5)cc4)CC3)CC2)ccc1N1CCC(=O)NC1=O [Example 50, 5-(tert-butyl)-N-(4-(5-(4-(4-((1-(4-(2,4-dioxotetrahydropyrimidin-1(2H)-yl)-3-methoxyphenyl)piperidin-4-yl)methyl)piperazin-1-yl)phenyl)-1H-pyrazolo[3,4-b]pyridin-3-yl)-2-methylbenzyl)-1,2,4-oxadiazole-3-carboxamide] | 4.65 nM |
| Cc1cc(-c2n[nH]c3ncc(-c4ccc(N5CCN(CCc6ccc(C7CCC(=O)NC7=O)c(Cl)c6)CC5)cc4)cc23)ccc1CNC(=O)c1noc(C(C)(C)C)n1 (stereo not drawn) [Example 51, 5-(tert-butyl)-N-(4-(5-(4-(4-(3-chloro-4-(2,6-dioxopiperidin-3-yl)phenethyl)piperazin-1-yl)phenyl)-1H-pyrazolo[3,4-b]pyridin-3-yl)-2-methylbenzyl)-1,2,4-oxadiazole-3-carboxamide] | 3.83 nM |
| Cc1cc(-c2n[nH]c3ncc(-c4ccc(C5CCN(CC6CCN(c7ccc(N8CCC(=O)NC8=O)cc7)CC6)CC5)nc4)cc23)ccc1CNC(=O)c1noc(C(C)(C)C)n1 [Example 63, 5-(tert-butyl)-N-(4-(5-(6-(1-((1-(4-(2,4-dioxotetrahydropyrimidin-1(2H)-yl)phenyl)piperidin-4-yl)methyl)piperidin-4-yl)pyridin-3-yl)-1H-pyrazolo[3,4-b]pyridin-3-yl)-2-methylbenzyl)-1,2,4-oxadiazole-3-carboxamide] | 4.22 nM |
| Cc1cc(-c2n[nH]c3ncc(-c4ccc(N5CCN(CC6CCN(c7ccc(N8CCC(=O)NC8=O)cc7)CC6)CC5)nc4)cc23)ccc1CNC(=O)c1noc(C(C)(C)C)n1 [Example 65, 5-(tert-butyl)-N-(4-(5-(6-(4-((1-(4-(2,4-dioxotetrahydropyrimidin-1(2H)-yl)phenyl)piperidin-4-yl)methyl)piperazin-1-yl)pyridin-3-yl)-1H-pyrazolo[3,4-b]pyridin-3-yl)-2-methylbenzyl)-1,2,4-oxadiazole-3-carboxamide] | 7.67 nM |
| Cc1cc(-c2n[nH]c3ncc(-c4ccc(N5CCN(CC6CCN(c7ccc(N8CCC(=O)NC8=O)cc7)CC6)CC5)cn4)cc23)ccc1CNC(=O)c1noc(C(C)(C)C)n1 [Example 66, 5-(tert-butyl)-N-(4-(5-(5-(4-((1-(4-(2,4-dioxotetrahydropyrimidin-1(2H)-yl)phenyl)piperidin-4-yl)methyl)piperazin-1-yl)pyridin-2-yl)-1H-pyrazolo[3,4-b]pyridin-3-yl)-2-methylbenzyl)-1,2,4-oxadiazole-3-carboxamide] | 5.32 nM |
| Cc1cc(-c2n[nH]c3ncc(-c4ccc(N5CCN(CC6CCN(c7ccc(N8CCC(=O)NC8=O)cc7)CC6)CC5)nc4)cc23)ccc1CNC(=O)c1nc(C(C)(C)C)no1 [Example 68, 3-(tert-butyl)-N-(4-(5-(6-(4-((1-(4-(2,4-dioxotetrahydropyrimidin-1(2H)-yl)phenyl)piperidin-4-yl)methyl)piperazin-1-yl)pyridin-3-yl)-1H-pyrazolo[3,4-b]pyridin-3-yl)-2-methylbenzyl)-1,2,4-oxadiazole-5-carboxamide] | 1.47 nM |
| Cc1cc(-c2n[nH]c3ncc(-c4ccc(N5CCN(CC6CCN(c7ccc(N8CCC(=O)NC8=O)c(C)c7)CC6)CC5)nc4)cc23)ccc1CNC(=O)c1noc(C(C)(C)C)n1 [Example 69, 5-(tert-butyl)-N-(4-(5-(6-(4-((1-(4-(2,4-dioxotetrahydropyrimidin-1(2H)-yl)-3-methylphenyl)piperidin-4-yl)methyl)piperazin-1-yl)pyridin-3-yl)-1H-pyrazolo[3,4-b]pyridin-3-yl)-2-methylbenzyl)-1,2,4-oxadiazole-3-carboxamide] | 2.5 nM and 2.37 nM |
| Cc1cc(-c2n[nH]c3ncc(-c4ccc(C5CCN(CC6CCN(c7ccc(N8CCC(=O)NC8=O)cc7)CC6)CC5)nc4)cc23)ccc1[C@@H](C)NC(=O)c1noc(C(C)(C)C)n1 [Example 71, (R)-5-(tert-butyl)-N-(1-(4-(5-(6-(1-((1-(4-(2,4-dioxotetrahydropyrimidin-1(2H)-yl)phenyl)piperidin-4-yl)methyl)piperidin-4-yl)pyridin-3-yl)-1H-pyrazolo[3,4-b]pyridin-3-yl)-2-methylphenyl)ethyl)-1,2,4-oxadiazole-3-carboxamide] | 4.03 nM |
| Cc1cc(-c2n[nH]c3ncc(-c4ccc(C5CCN(CC6CCN(c7ccc(N8CCC(=O)NC8=O)cc7)CC6)CC5)cn4)cc23)ccc1[C@@H](C)NC(=O)c1noc(C(C)(C)C)n1 [Example 72, (R)-5-(tert-butyl)-N-(1-(4-(5-(5-(1-((1-(4-(2,4-dioxotetrahydropyrimidin-1(2H)-yl)phenyl)piperidin-4-yl)methyl)piperidin-4-yl)pyridin-2-yl)-1H-pyrazolo[3,4-b]pyridin-3-yl)-2-methylphenyl)ethyl)-1,2,4-oxadiazole-3-carboxamide] | 1.21 nM |
| Cc1cc(-c2n[nH]c3ncc(-c4ccc(N5CCN(CC6CCN(c7ccc(N8CCC(=O)NC8=O)c(C)c7)CC6)CC5)cn4)cc23)ccc1[C@@H](C)NC(=O)c1noc(C(C)(C)C)n1 [Example 78, (R)-5-(tert-butyl)-N-(1-(4-(5-(5-(4-((1-(4-(2,4-dioxotetrahydropyrimidin-1(2H)-yl)-3-methylphenyl)piperidin-4-yl)methyl)piperazin-1-yl)pyridin-2-yl)-1H-pyrazolo[3,4-b]pyridin-3-yl)-2-methylphenyl)ethyl)-1,2,4-oxadiazole-3-carboxamide] | 1.75 nM |
| Cc1cc(-c2n[nH]c3ncc(-c4ccc(N5CCN(CCCOc6ccc(C7CCC(=O)NC7=O)c(F)c6)CC5)cc4)cc23)ccc1[C@@H](C)NC(=O)c1noc(C(C)(C)C)n1 (stereo partly drawn) [Example 86, 5-(tert-butyl)-N-((1R)-1-(4-(5-(4-(4-(3-(4-(2,6-dioxopiperidin-3-yl)-3-fluorophenoxy)propyl)piperazin-1-yl)phenyl)-1H-pyrazolo[3,4-b]pyridin-3-yl)-2-methylphenyl)ethyl)-1,2,4-oxadiazole-3-carboxamide] | 3.95 nM |
| Cc1cc(CCN2CCN(c3ccc(-c4cnc5[nH]nc(-c6ccc([C@@H](C)NC(=O)c7nc(C(C)(C)C)no7)c(C)c6)c5c4)cc3)CC2)ccc1C1CCC(=O)NC1=O (stereo partly drawn) [Example 87, 3-(tert-butyl)-N-((1R)-1-(4-(5-(4-(4-(4-(2,6-dioxopiperidin-3-yl)-3-methylphenethyl)piperazin-1-yl)phenyl)-1H-pyrazolo[3,4-b]pyridin-3-yl)-2-methylphenyl)ethyl)-1,2,4-oxadiazole-5-carboxamide] | 7.21 nM |
